Reference: patent US10428056B2, “Heterocyclic compound” (Takeda Pharmaceutical Company Limited, priority 2015, dated 2019)
Blank lines part the entries; values can stand above or below the molecule they belong to.

What was measured:
[1] = target: T1, human M1 receptor (hCHRM1) (Homo sapiens, UniProt P11229); assay: Measurement of M1 receptor positive allosteric modulator (M1PAM) activity, Ca fluorescence by FDSS/μ cell (Experimental Example 2); format: cell-based; details: inflection point of concentration-dependent curve, CHO-K1 cells expressing hCHRM1, acetylcholine at EC20 (0.8-1.0 nM), read-out: IP value
T1 construct: expressed in transfected cells; host or cells: CHO-K1
T1 sequence (P11229 1-460): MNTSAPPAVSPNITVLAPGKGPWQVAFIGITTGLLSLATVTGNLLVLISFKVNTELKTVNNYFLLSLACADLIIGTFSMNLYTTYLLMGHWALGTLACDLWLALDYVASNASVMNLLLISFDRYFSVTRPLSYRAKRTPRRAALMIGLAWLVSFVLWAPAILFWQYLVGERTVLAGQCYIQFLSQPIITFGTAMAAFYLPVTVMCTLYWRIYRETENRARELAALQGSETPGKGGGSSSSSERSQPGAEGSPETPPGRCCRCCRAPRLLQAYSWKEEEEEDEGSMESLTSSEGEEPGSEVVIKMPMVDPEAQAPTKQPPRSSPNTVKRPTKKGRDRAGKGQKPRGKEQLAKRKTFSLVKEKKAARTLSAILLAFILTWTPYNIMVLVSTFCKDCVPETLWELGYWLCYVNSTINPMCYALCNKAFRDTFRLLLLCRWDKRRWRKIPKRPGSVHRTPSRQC
Procedure: (§1) Measurement of M1 Receptor Positive Allosteric Modulator (M1PAM) Activity
(§2) The activity of a test compound in the presence of acetylcholine at EC20 concentration (final concentration 0.8-1.0 nM), which affords an action corresponding to about 20% of the maximum activity, was measured as PAM activity. The method is as follows. CHO-K1 cells stably expressing a human M1 receptor (hCHRM1) were plated on a 384-well black clear bottom plate (BD Falcon) at 5,000 cells/well, and cultured in an incubator at 37° C., 5% CO2 for 1 day. […] A test compound prepared by diluting with assay buffer containing 3.2-4.0 nM acetylcholine was added at 10 μL/well, and the fluorescence was measured by FDSS/μ cell (Hamamatsu Photonics K.K.) for 1 min every 1 second. With the definition that the amount of change in the fluorescence on addition of acetylcholine (final concentration 1 μM) is 100% and that on addition of DMSO instead of a test compound is 0%, the activity (%) of the test compound was calculated, and the inflection point in the concentration-dependent curve of the test compound was calculated as IP values.

[2] = target: T1, human M1 receptor (hCHRM1); assay: Measurement of M1 receptor positive allosteric modulator (M1PAM) activity, Ca fluorescence by FLIPRtetra (Experimental Example 1); format: cell-based; details: inflection point of concentration-dependent curve, CHO-K1 cells expressing hCHRM1, acetylcholine at EC20 (0.8-1.0 nM), read-out: IP value
Procedure: as §1
as §2, with “FLIPRtetra (Molecular Devices)” for “FDSS/μ cell (Hamamatsu Photonics K.K.)”

[3] = tested on: Scopolamine-induced memory deficits models; assay: Novel object recognition test (Experimental Example 4); format: in vivo, male Long-Evans rats; details: 10 mg/kg oral single dose, scopolamine 0.1 mg/kg s.c.; retention trial 4 hr after acquisition; mean±standard error
Procedure: Novel Object Recognition Test Novel object recognition test is comprised of two trials called the acquisition and the retention trials. Scopolamine-induced memory deficits models were used for the test, and animals used were male Long-Evans rats. On the day before the test, for acclimation, the rats were allowed to freely move about the test box (40×40×50 cm) for 10 minutes. On the test day, the rats were acclimated to the test room for about 1 hr prior to the test. The test compounds were orally administered to the rats in a single dose a given time before the acquisition trial. For induction of learning and memory deficits, scopolamine (0.1 mg/kg) was subcutaneously administered into the rats 30 min before the acquisition trial. For the acquisition trial, two identical objects (A1, A2) were placed in the test box. The rats were put in the test box for 3 min, and the duration exploring each object was measured. The retention trial was performed 4 hr after the acquisition trial. […] The duration for exploring each object in the acquisition trial and the retention trial was measured, and the exploration rate of novel object was calculated. The exploration rate of novel object was expressed as (the duration exploring the novel object)/[(the duration exploring the novel object)+(the duration exploring the familiar object)]×100(%) at mean±standard error.

EC50 [1]: 6.8 nM
SMILES: Cc1c(Cc2ccc(-n3cccn3)nc2)cc2c(c1Cl)OCN([C@H]1CCC[C@@H]1O)C2=O (single isomer, unassigned) [Example 97, 8-chloro-3-(trans-2-hydroxycyclopentyl)-7-methyl-6-((6-(1H-pyrazol-1-yl)pyridin-3-yl)methyl)-2,3-dihydro-4H-1,3-benzoxazin-4-one]

EC50 [2]: 27 nM
SMILES: Cc1cc2c(cc1Cc1ccc(Cl)nc1)C(=O)N([C@H]1CCCC[C@@H]1O)CO2 (relative stereo) [Example 62, 6-((6-chloropyridin-3-yl)methyl)-3-(trans-2-hydroxycyclohexyl)-7-methyl-2,3-dihydro-4H-1,3-benzoxazin-4-one]

SMILES: Cc1ccc(Cc2cc3c(cc2C)OCN([C@H]2CCCC[C@@H]2O)C3=O)cn1 (single isomer, unassigned) [Example 28, 3-(trans-2-hydroxycyclohexyl)-7-methyl-6-((6-methylpyridin-3-yl)methyl)-2,3-dihydro-4H-1,3-benzoxazin-4-one]
exploration rate of novel object (%) [3]: 56.0±2.2%
